Source: the SangsterLogP compilation

assay: method code SF, from DOI: 10.1246/bcsj.55.1489; conditions: pH 7.0

| Structure (SMILES) | logD |
| --- | --- |
| COc1cc(-n2c(C)cc(=O)n2C)nc(C)n1 | 0.38 |
| COc1cc(-n2nc(C)cc2OC)nc(OC)n1 | 1.86 |
| Cc1cc(-n2c(=O)cc(C)n2C)nc(C)n1 | 0.24 |
| COc1cc(C)nn1-c1ccncn1 | 0.5 |
| COc1cc(C)n(-c2ccncn2)n1 | 2.21 |
| Cc1cc(C)nc(-n2c(C)cc(=O)n2C)n1 | 0.51 |

Results, then the compound that gave them:

| logD | Structure (SMILES) |
| --- | --- |
| 0.7 | COc1cc(-n2c(=O)cc(C)n2C)nc(C)n1 |
| 0.73 | COc1cc(C)nn1-c1nc(C)cc(C)n1 |
| 0.3 | COc1cc(-n2c(=O)cc(C)n2C)ncn1 |
| 1.82 | COc1cc(C)n(-c2nc(C)cc(C)n2)n1 |
| 1.53 | COc1cc(-n2nc(C)cc2OC)ncn1 |
| 1.03 | COc1nc(C)cc(-n2[nH]c(C)cc2=O)n1 |
| 1.01 | COc1ccnc(-n2nc(C)cc2OC)n1 |
